Test results reported in publication PMC5090206, “Fluselenamyl: A Novel Benzoselenazole Derivative for PET Detection of Amyloid Plaques (Aβ) in Alzheimer’s Disease” (Scientific Reports, 2016).

Target: Aβ plaques (Homo sapiens, UniProt P05067)
Assay: Histochemical staining of mouse brain hippocampus sections
Design: species or system mice
Conditions: 10 months old
Text: Aβ imaging ligands and disease-modifying therapeutics have been investigated using APP^+/−/PS1^+/− transgenic mice models. Further, we assessed the ability of 5 to stain ex vivo brain sections (50 μm) of age-matched APP^+/−/PS1^+/− mice and their WT (BL/6) counterparts, using established procedures. As a positive control, anti-Aβ monoclonal antibody (mHJ3.4 conjugated to Alexa Fluor 568) was used[34]. […] By comparison, 5 indicated no staining in 10 months old WT mice (SI, Fig. 3) thus indicating its target specificity.
Scientific Reports Version of August 4, 2016
µm) were cut in the coronal plane on a freezing sliding microtome and stored at -20°C. 7,8 Tissue was stained as free-floating sections. Prior to staining, tissue sections were permeabilized with PBS-Tritron-X-100 (0.25%) for 30 minutes, and then blocked with 1% non-fat dry milk in PBS-Ttiton-X-100 for 60 minutes.
Hippocampus tissue sections of APP+/-/PS1+/- and age-matched control BL/6 (WT, SI Figure 3) were incubated with fluorescent molecule 5 (100 nM dissolved in 1% ethanol in PBS) for 60 minutes, and washed 3-times with PBS-Triton-X-100.9 Thereafter, tissue sections were incubated with mouse-anti-Aβ (mHJ3.4) 7 that was directly conjugated to Alexa 568 for 90 minutes and washed 3-times with PBS-Triton-X-100. […]

Chain of Aβ plaques (P05067 672-711 limits assumed): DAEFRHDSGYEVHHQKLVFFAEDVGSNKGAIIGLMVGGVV

## CN(C)c1ncc(/C=C\c2nc3cc(OCCF)ccc3[se]2)cn1 [compound 5, (Z)-5-(2-(5-(2-fluoroethoxy)benzo[d][1,3]selenazol-2-yl)vinyl)-N,N-dimethylpyrimidin-2-amine]
100 nM, APP+/−/PS1+/− mice
  staining of Aβ plaques in hippocampus brain sections: abundant staining of Aβ plaques
WT mice
  staining of brain sections: no staining
